Measurements: patent US20100256086A1, “NON-HYDROLYZABLE NUCLEOSIDE DI- OR TRI-PHOSPHATE DERIVATIVES AND USES THEREOF” (priority 2007, published 2010)
Entries after “also recorded” stand apart in the source; their conditions may differ. Like-named read-outs stand apart in the source and are kept apart here. One block for each compound: values may come before it.

Legend:
[1] = Stability in human blood serum, Method A; type: in vitro ADME; conditions: human blood serum and RPMI-1640, 37° C.
Description: Preparation of the Human Blood Serum: Blood Taken from Healthy Volunteers was obtained from a blood bank (Tel-Hashomer hospital, Israel), stored for 12 h at 4° C. and centrifuged in plastic tubes at 1500 g for 15 min at room temperature. The serum was separated and stored at −80° C.
The assay mixture, containing a 40 mM nucleotide derivative solution in deionized water (4.5 μl), human blood serum (180 μl) and RPMI-1640 (540 μl), was incubated at 37° C. for 1, 4, 8, 16, 24, 48, 72 and 96 h. The samples were then treated with 0.6 M of hydrochloric acid (430 μl), centrifuged for 2 min (13,000 g, 4° C.), neutralized by addition of 4 M of KOH, centrifuged for 2 min (13,000 g, 4° C.) and freeze-dried. The stability of the nucleotide was evaluated by HPLC for monitoring possible dephosphorylation products. The mixture was separated on a Gemini analytic column (5u C-18 110A, 150×4.60 mm) with gradient elution [0.01 M KH2PO4 pH=4.5 (A)/acetonitrile (B), 100:0→60:40, A:B, 20 min for 2, 3A and 3B; 100:0→95:5, A:B, 10 min for ATP] and flow rate of 1 ml/min. The hydrolysis rate was determined by measuring the change in the integration of the respective HPLC peaks with time.

[2] = Chemical stability at pH 1.4 and 37° C. evaluated by HPLC; type: physicochemical; conditions: pH 1.4, 37° C., after 19 h
Description: The stability of 3 (isomer B) in the appropriate buffer solution (0.2 M HCl/KCl, pH=1.4) at 37° C. was evaluated by HPLC-electrospray ionization (ESI)MS for 5 days at 7-17 h intervals, and its hydrolysis rate, based on the HPLC integration changes of the 3B peak with time, was fit to a pseudo first-order exponential decay rate equation, as shown in FIGS. 2A-2B. In addition to 3B, degradation products 6, 7 and 8 were identified in the hydrolysis mixture, as depicted in Scheme 3. For instance, after 19 h, 50% of 3B was degraded giving rise to 37% of AMP-α-B and AMP-α-H (6 and 7, respectively. Both appear at the same retention time; however, MS enabled the identification of these compounds) and 13% adenosine (FIG. 2A). […]
The stability of 4 (isomer B) in the appropriate buffer solution (pH=1.4) at 37° C. was evaluated by HPLC to monitor possible dephosphorylation products. […] The solution was kept in an oil bath at 37° C. and its composition was analyzed by HPLC-MS, using a Gemini analytic column (5u C-18 110A, 150×4.60 mm) and gradient elution with Solvent System I (see Example 1) at 89:11 A:B for 15 min and then 82:18 to 74:26 A:B for 20 min at a flow rate of 1 ml/min. […] The hydrolysis rate of 4 was determined by measuring the change in the integration of the HPLC peaks of the degradation products, 6, 7 and 8, with time.

[3] = target: T1, turkey P2Y1 (Meleagris gallopavo, UniProt P49652); assay: Intracellular calcium measurement ([Ca2+]i, fura-2) in 1321N1 astrocytoma cells; type: cell-based
T1 construct: expressed in transfected cells
T1 sequence (P49652 whole entry): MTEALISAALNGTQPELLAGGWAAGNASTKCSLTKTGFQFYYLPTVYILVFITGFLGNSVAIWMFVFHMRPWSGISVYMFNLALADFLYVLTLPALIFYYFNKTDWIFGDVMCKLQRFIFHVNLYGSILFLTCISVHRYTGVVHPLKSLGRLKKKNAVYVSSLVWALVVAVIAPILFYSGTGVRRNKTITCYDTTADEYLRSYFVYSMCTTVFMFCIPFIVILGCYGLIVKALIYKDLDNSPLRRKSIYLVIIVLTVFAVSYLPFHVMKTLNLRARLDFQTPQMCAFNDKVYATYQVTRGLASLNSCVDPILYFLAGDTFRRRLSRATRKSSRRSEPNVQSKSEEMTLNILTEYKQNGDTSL
Description: Human 1321N1 astrocytoma cells stably expressing the turkey P2Y1, human P2Y2, human P2Y4 or rat P2Y6 were grown in Dulbecco's modified Eagle's medium containing 5% (v/v) fetal bovine serum, 100 units/ml penicillin, 100 μg/ml streptomycin and 500 μg/ml Geneticin (G-418, Life Technologies, Inc). Changes in the intracellular free calcium concentration, [Ca^2+]i were detected by dual-excitation spectrofluorometric analysis of cell suspensions loaded with fura-2, as previously described (Garrad et al., 1998; Grynkiewicz et al., 1985). Cells were assayed in 10 mM Hepes-buffered saline (pH 7.4) containing 1 mM CaCl2 and 1 mM MgCl2. The cells were pelleted in a microfuge and resuspended in 2 ml of buffer. Concentration-response data were analyzed with the Prism curve fitting program (GraphPAD Software, San Diego, Calif.). Three experiments were conducted on separate days for each P2Y receptor subtype.
The activities of compounds 2, 4B, 17, 18, 19A, 21 (isomers A and B) were examined at the G protein-coupled P2YRs, P2Y1, P2Y2, P2Y4 and P2Y6 expressed in human 1321N1 astrocytoma cells, based on intracellular calcium measurements, as described in Experimental above. In particular, the activity of compound 2, 4B and 19 was examined at P2Y1R, P2Y2R, P2Y4R and P2Y6R, and the activity of compounds 17, 18 and 21 was examined at P2Y1R only. The experiments were conducted by Prof. Gary A. Weisman from Columbia-Missouri University, Columbia, Mo., USA.

[4] = target: T2, calf intestine alkaline phosphatase (Bos taurus, UniProt P19111); assay: Enzymatic stability to alkaline phosphatase; type: in vitro ADME; conditions: 37° C., as in Example 6
T2 construct: purchased Fermentas Inc., Glen Burnie, Md
T2 sequence (P19111 20-506): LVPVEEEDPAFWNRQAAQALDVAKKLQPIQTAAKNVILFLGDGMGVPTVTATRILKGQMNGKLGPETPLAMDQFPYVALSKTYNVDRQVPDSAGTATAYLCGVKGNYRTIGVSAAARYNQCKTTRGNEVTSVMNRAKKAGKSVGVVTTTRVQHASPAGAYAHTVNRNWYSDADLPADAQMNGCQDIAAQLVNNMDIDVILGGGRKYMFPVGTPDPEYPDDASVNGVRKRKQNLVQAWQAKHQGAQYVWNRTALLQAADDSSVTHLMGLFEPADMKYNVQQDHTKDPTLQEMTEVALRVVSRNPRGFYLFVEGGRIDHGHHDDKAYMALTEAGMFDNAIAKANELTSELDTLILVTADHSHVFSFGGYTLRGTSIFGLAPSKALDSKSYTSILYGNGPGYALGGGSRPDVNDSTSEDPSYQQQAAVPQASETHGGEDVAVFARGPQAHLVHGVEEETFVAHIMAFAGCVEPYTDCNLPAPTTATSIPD
Description: Enzyme activity was measured by the release of p-nitrophenol from the nucleotide derivatives using a UV-vis spectrophotometer at 405 nm. Relative activity and resistance of nucleotides to enzymatic hydrolysis were determined at 37° C. Briefly, 32.5 μl of nucleotide derivative (77 μg/ml in 0.1 M Tris-HCl and 0.1 M MgCl2, pH 7.5) and 6 μl of deionized water were incubated with calf intestine alkaline phosphatase (Fermentas Inc., Glen Burnie, Md., 1 unit/μl, 6.25 μl at 37° C. final pH=9.8). After 30 min, the reaction was stopped by incubation at 80° C. for 30 min. The stability of the nucleotide derivative was evaluated by HPLC to monitor possible dephosphorylation products. The mixture was separated on a Gemini analytic column (5u C-18 110A, 150×4.60 mm) using gradient elution with Solvent System I (see Example 1) at 90:10 to 70:30 A:B for 3A and 3B, and 82:18 to 50:50 for 4A, 4B and 2 over 20 min and at a flow rate of 1 ml/min.

[5] = target: T3, rP2Y1R (Rattus norvegicus, UniProt P49651); conditions: HEK293 cells expressing rP2Y1R, Ca2+ mobilization; cited from earlier work
T3 construct: host or cells: HEK293 cells
T3 sequence (P49651 whole entry): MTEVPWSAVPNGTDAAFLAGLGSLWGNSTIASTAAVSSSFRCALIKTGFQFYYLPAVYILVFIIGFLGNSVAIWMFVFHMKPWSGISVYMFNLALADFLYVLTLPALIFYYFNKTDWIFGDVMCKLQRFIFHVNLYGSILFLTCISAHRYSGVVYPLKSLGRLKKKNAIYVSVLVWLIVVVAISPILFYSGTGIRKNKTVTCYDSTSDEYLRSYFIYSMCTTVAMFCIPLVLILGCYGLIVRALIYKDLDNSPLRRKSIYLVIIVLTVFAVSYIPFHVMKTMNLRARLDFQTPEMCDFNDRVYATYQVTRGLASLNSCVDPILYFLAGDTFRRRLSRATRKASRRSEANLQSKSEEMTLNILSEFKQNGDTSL

[6] = Glucose challenge in cannulated Wistar rats (insulin secretagogue efficacy); type: in vivo, rat; conditions: starved Wistar rats
Description: The objective of this experiment is to study in vivo the efficacy of the compounds of the present invention as insulin secretion enhancing molecules, following a single oral gavage (per os) administration of glucose to cannulated Wister rats, by measuring the blood glucose and insulin levels following administration of the tested compound to the cannulated rats intra venues through the cannule.
A total of about 40 healthy 10-13 week old Wister rats are used. Animals are acclimatized for at least 4 days prior to commencement of treatment and are fed with non-medicated commercial sterile rodent food ad libitum. Drinking tap water are available ad libitum.
About 48 hours prior treatment, rats are weighted and a population uniform in weight (about 90% of the animals) is taken for cannulation. In particular, animals are anesthetized by 2.5% isofluran 97.5% dry air inhalation, and a P52 cannula is surgically inserted and fixed in the jugular vein and flushed with 0.3-0.5 ml 5% heparinized saline after cannulation (and thereafter, immediately after each blood collection). In case a technical problem such as fixation or clotting arises with a rat's indwelling cannula, another rat is cannulated and replace the previously allocated rat in the study.
On the day of treatment, the cannule of each one of the rats is checked, the rats are weighed, and the glucose level of each one of the rats is checked via the tail vain. […]
Glucose and insulin levels are measured 30 minutes prior to glucose administration (and prior to glibenclamide administration in the case of the positive control group); immediately before and 5 minutes after glucose administration; 15 minutes after glucose administration, namely, 5 minutes after administration of the tested compound or saline (in the cases of the first and the negative control groups, respectively); and then 30, 45, 60 120 and 150 minutes after glucose administration. […]

Compound: B[P@](=O)(OC[C@H]1O[C@@H](n2cnc3c(N)ncnc32)[C@H](O)[C@@H]1O)OP(=O)(O)CP(=O)(O)O (single isomer, unassigned) [Compound 3B, Adenosine-β,γ-CH2-5′-O-(1-boranotriphosphate)]
half-life in human blood serum [1]: 47.1 h
fraction degraded [2]: 50%
activity at P2Y1R, in words [3]: practically inactive
activities at the P2YRs tested ([3]; P2Y1, P2Y2, P2Y4 and P2Y6 tested): insignificant activities

t1/2 to alkaline phosphatase [4]: about 4 h
half-life in human blood serum: about 2 h
Compound: Nc1ncnc2c1ncn2[C@@H]1O[C@H](COP(=O)(O)OP(=O)(O)O)[C@@H](O)[C@H]1O [ADP, reference compound]

Compound: CSc1nc(N)c2ncn([C@@H]3O[C@H](COP(=O)(O)OP(=O)(O)OP(=O)(O)O)[C@@H](O)[C@H]3O)c2n1 [Compound 2-MeS-ATP, 2-MeS-ATP]
EC50 [5]: 1 nM

Compound: [BH3-]P(=O)(OC[C@H]1O[C@@H](n2cnc3c(N)nc(SC)nc32)[C@H](O)[C@@H]1O)OP(=O)([O-])[O-].[Na+].[Na+].[Na+] (stereo partly drawn) [Compound 19, 2MeS-adenosine-5′-O-(Pα-borano) diphosphate]
glucose levels after glucose challenge relative to saline treated rats ([6]; 2.5 mg/kg IV 10 minutes after glucose challenge, preliminary study): reduced the glucose levels; also recorded: reduces glycemia

Compound: COc1ccc(Cl)cc1C(=O)NCCc1ccc(S(=O)(=O)NC(=O)NC2CCCCC2)cc1 [glibenclamide, reference compound]
glucose levels after glucose challenge relative to saline treated rats ([6]; 0.25 mg/kg per os 30 minutes prior to glucose, positive control): reduced the glucose levels
